These are literature values, as cited in patent publication US20070021351A1, “Liver/plasma concentration ratio for dosing hepatitis C virus protease inhibitor” (Schering Corporation, priority 2005, published 2007).

Molecules are shown by their SMILES.

For this series the following is noted: in vivo; cited from earlier work.

As to `C[C@H]1O[C@@H](O[C@H]2[C@@H](O)C[C@H](O[C@H]3[C@@H](O)C[C@H](O[C@H]4CC[C@@]5(C)[C@H](CC[C@@H]6[C@@H]5C[C@@H](O)[C@]5(C)[C@@H](C7=CC(=O)OC7)CC[C@]65O)C4)O[C@@H]3C)O[C@@H]2C)C[C@H](O)[C@@H]1O` [digoxin, reference compound], the volume of distribution is on record as roughly 450 L. As for `CCO` [ethanol, Ethanol], the volume of distribution entry is reported as “about 35 L”.
